The values that follow come from patent publication US8188326B2, “Process for producing adamantane” (Mitsubishi Gas Chemical Company, Inc., priority 2008, dated 2012).

Each structure is given as a SMILES string.

The format of the series is physicochemical. The protocol: FIG. 1 is a graph showing the measurement results of the solubility of adamantane (hereinafter, occasionally referred to simply as “ADM”) in TCD (mol %=ADM mol/(exo-TCD+endo-TCD+ADM)mol×100).
Specifically, at 80° C., with respect to the purity of 80% of mixed TCD containing exo-TCD of 99% and endo-TCD of 1% (hereinafter, referred to simply as “exo-TCD (99)”), the total ADM solubility is 20 mol %. […] It is preferable to control the yield (generation amount) of adamantane to be equal to or less than such a level of ADM solubility.

Take `C1C2CC3CC1CC(C2)C3` [adamantane, tricyclo[3.3.1.1^3,7]decane]: the “total ADM solubility of adamantane with respect to TCD” value is recorded as 12.3 mol %.
